# No end group written: not given here.
# Tests used:
# [1] = system: deep II degree burn (scald wound); assay: Animal Experiment 1: rat scald (deep II degree burn) model; type: in vivo, SD rats; conditions: after 14 days of treatment; smeared twice a day on scald wound; other side untreated control
# Experimental: The following will verify the therapeutic function of the medicament prepared in embodiments 1 to 3 on trauma and burns through experiments. The pharmacodynamic effects of polypeptide drugs were evaluated by establishing a rat burn model or a rat trauma model. Experimental Purpose: to study the therapeutic effect of polypeptide drug of the invention on scald. Experimental Animals: SD rats, half male and half female, 200 g±10 g. The Modeling Scheme: the rats' back were depilated with 10% barium sulfide the day before the experiment, and anesthetized by intraperitoneal injection before scalding. The rat models were made with a constant temperature and pressure scald apparatus. After scalding, 5 ml lactate Ringer's solution was intraperitoneally injected immediately to prevent shock. The criteria for successful modeling: disappearance of local epidermis; expansion of blood vessels in epidermis, dermis and subcutaneous tissue; edema of subcutaneous tissue; infiltration of acute and chronic inflammatory cells in dermis and subcutaneous tissue; the above description is a deep II degree burn. Animal Grouping: 8 SD rats in total Ointment Group (Ointment prepared in embodiment 2): 4 rats, half male and half female, scalded on both sides of the body. After scalding, one side was administered, and the other side was used as control. […]
# HaCAT cells = assay: Cell Differentiation Experiment; type: cell-based, human; conditions: 10 μL polypeptide (10 mg/ml), 48 h
# Experimental: 1. Cell Resuscitation: • (1) HaCAT cells (human immortalized epidermal cells, purchased from Wuhan University Cell Preservation Center, GDC106) are taken out of liquid nitrogen, quickly put into a 37° C. water bath, and gently shake the cryopreservation tube to dissolve the cryopreservation solution;
# (2) After dissolution, the HaCAT cells were transferred to a centrifuge tube containing 5 ml of culture medium. The cells were collected by centrifugation, centrifuged at 1000 rmp at room temperature for 5 min, and the supernatant was discarded;
# (3) The HaCAT cells were suspended in a complete medium containing 10% fetal bovine serum, inoculated into a culture dish, gently blown and mixed, and cultured at 37° C. and 5% CO2 saturated humidity.
# When the cell density reaches 80%, the HaCAT cells will be subcultured:
# (1) Discard the culture medium and wash it once with PBS;
# (2) Add 1-2 ml 0.25% trypsin to digest the cells. Observe under the microscope. Digest for 1-2 min. It can be seen that the cells are separated from each other and become round, that is, the digestion is completed;
# (3) Quickly discard the trypsin, add the complete culture medium, blow the cells to make a single cell suspension, pass the passage in a ratio of 1:3, and expand the culture under 37° C. and 5% CO2 saturated humidity. […]
sequence,measurement,setting,value
MPYSTELIFYIEMDP [polypeptide],Photo observation of wound healing,[1],can obviously promote the wound healing
same,Differentiation of HaCAT cells (morphology on photos),HaCAT cells,some cells are differentiated

# From patent US12447191B2, “Topical application of polypeptide in the treatment of skin damage” (WUHAN YICHENG BIOTECHNOLOGY CO., LTD., priority 2020, dated 2025)
